Like-named read-outs stand apart in the source and are kept apart here.
Key:
[1] = tested on: conjunctiva of patients with bilateral open-angle glaucoma or ocular hypertension; conditions: bimatoprost 0.03% once daily, cited from earlier work
[2] = tested on: conjunctiva of patients with primary open-angle glaucoma; conditions: cited from earlier work
[3] = tested on: rabbit isolated jugular veins; experiment: Vasorelaxation in histamine-precontracted rabbit isolated jugular veins; format: cell-based
Excerpt: FIG. 3. Concentration-response curves for (FIG. 3A) bimatoprost and (FIG. 3B) latanoprost free acid in histamine-precontracted endothelium-intact and endothelium-denuded rabbit isolated jugular veins. Results are expressed as mean±S.E.M. of 5-6 animals. FIG. 3A adapted from Chen J et al., Invest Ophthalmol Vis Sci 2004; 45:ARVO E-Abstract 2609; FIG. 3B extends results reported in Chen J et al., Invest Ophthalmol Vis Sci 2004; 45:ARVO E-Abstract 2609; and Pharmacology Review of New Drug Application 21-275. FDA/Center for Drug Evaluation and Research. 2001;Part 1 and Part 2:1-107. Available online at http://www.fda.gov/cder/foi/nda/2001/21275_Lumigan.htm.
FIG. 4. Concentration-response curves for (FIG. 4A) bimatoprost and (FIG. 4B) latanoprost free acid in the presence or absence of indomethacin in endothelium-intact rabbit isolated jugular veins. Results are expressed as mean±S.E.M. of 7 animals and extend previous results reported in Pharmacology Review of New Drug Application 21-275. FDA/Center for Drug Evaluation and Research. 2001;Part 1 and Part 2:1-107. Available online at http://www.fda.gov/cder/foi/nda/2001/21275_Lumigan.htm.
FIG. 5. Concentration-response curves for (FIG. 5A) bimatoprost and (FIG. 5B) latanoprost free acid in the presence of 100 μM L-NAME or 100 (μM D-NAME control in endothelium-intact rabbit isolated jugular veins. Results are expressed as mean±S.E.M. of 6 animals. *P≦0.05, compared to responses in D-NAME pretreated tissues at the same concentration, paired t-test.
The pharmacological mechanism of ocular surface hyperemia elicited by bimatoprost and latanoprost was investigated using the rabbit jugular vein preparation as a quantitative in vitro model (Chen J. et al., Br J Pharmacol 1995; 116:3035-3041). In these studies, tissues were suspended in jacketed organ baths containing Krebs buffer with 1 μM indomethacin (endothelium-intact and -denuded) or in its absence (endothelium-intact) and precontracted with 3 μM histamine. Vasorelaxant and contractile activity were determined as a percentage (%) of the control tone elicited by histamine. Statistical comparisons for the vasorelaxant activity consisted of testing for significance of difference at each of the concentrations tested using the Student'-s t-test for unpaired samples (indomethacin vs no indomethacin) and paired samples (L-NAME vs D-NAME). Differences were considered statistically significant for P-values ≦0.05.
Indomethacin is a cyclooxygenase inhibitor that is routinely used in prostanoid receptor assays (Chen J et al., Current protocols in pharmacology. New York: John Wiley & Sons, Inc., 2001; 4.18.1-4.18.41). Studies of intact and viable isolated tissues, such as the rabbit jejunum (Ferreira S H, Herman A G, Vane J R., Br J Pharmacol 1976; 56:469-477) and human bronchial muscle (Haye-Legrand I, Cerrina J, Raffestin B et al., J Pharmacol Exp Ther 1986; 239:536-541), found the basal output of prostaglandins to be 8-23 pg/mg of tissue at baseline or over 30 min collection periods. In the presence of 1.7 and 2.79 μM indomethacin, the amounts of prostaglandins generated in isolated tissues become negligible (Botting J H, Salzmann R., Br J Pharmacol 1974; 50:119-124; Haye-Legrand I, Cerrina J, Raffestin B et al., J Pharmacol Exp Ther 1986; 239:536-541). The 1 μM concentration of indomethacin in the tissue bath, in our experience, is sufficient to prevent biosynthesis of prostanoids within isolated vascular tissue preparations (Alster P, Wennmalm Å., Eur J Pharmacol 1983; 86:441-446; Chen J et al., Current protocols in pharmacology. New York: John Wiley & Sons, Inc., 2001; 4.18.1-4.18.41). At substantially higher concentrations, indomethacin has been reported to lose selectivity for prostanoid biosynthesis inhibition (Aboulafia J et al., Br J Pharmacol 1976; 58:223-228; Goodfriend T L, Simpson R U., Br J Pharmacol 1981; 72:247-255; Northover B J, Br J Pharmacol 1971; 41:540-551; Sawdy R et al., Br J Pharmacol 1998; 125:1212-1217). […]

[4] = tested on: patients with glaucoma or ocular hypertension; conditions: cited from earlier work
[5] = non-human primate, after single or multiple topical bimatoprost dosing; cited from earlier work
[6] = tested on: rabbit isolated jugular veins; conditions: cited from earlier work
[7] = tested on: palpebral conjunctiva of Cynomolgus monkeys; conditions: cited from earlier work
[8] = tested on: human cultured conjunctiva-derived epithelial cells; conditions: cited from earlier work
[9] = tested on: palpebral conjunctiva of Dutch-Belted (pigmented) rabbits; set-up: key: N = Tissues within normal histological limits; conditions: left eye, n = 20, cited from earlier work
[10] = tested on: bulbar conjunctiva of patients; conditions: bimatoprost 0.03% q.d. for 60 days; biopsies at day 7 and impression cytology; cited from earlier work
[11] = tested on: eyes of conscious Beagle dogs; conditions: bimatoprost 0.1%, latanoprost 0.005%, cited from earlier work
[12] = Bimatoprost 0.03% b.i.d. 6 months
[13] = Bimatoprost 0.03% q.d. 6 months
[14] = Bimatoprost 0.1% b.i.d. 6 months

CCNC(=O)CCC/C=C\C[C@@H]1[C@@H](/C=C/[C@@H](O)CCc2ccccc2)[C@H](O)C[C@@H]1O [Bimatoprost, bimatoprost]
time at which frequency and severity of hyperemia peaked after the first instillation ([1]; 39 patients, slit-lamp biomicroscopy): approximately 1 day
hyperemia returning to near baseline levels ([1]; month-long study): ≤ 28 days
clinical significance of the hyperemia [1]: not clinically significant
eyes with signs of inflammatory cell margination or infiltration ([2]; bimatoprost 0.03% q.d. 2 to 4 weeks, eyes with hyperemia (2/9)): 22%
eyes with vascular congestion ([2]; bimatoprost 0.03% q.d. 2 to 4 weeks, eyes with hyperemia (7/9)): 78%
eyes that developed conjunctival hyperemia ([2]; bimatoprost 0.03% q.d. for 2 to 4 weeks): Nine of 13
vasorelaxant response in presence of 100 μM L-NAME compared to 100 μM D-NAME control ([3]; endothelium-intact histamine precontracted tissues, P≦0.05 paired t-test): significantly inhibited
difference in effects with and without 1 μM indomethacin ([3]; endothelium-intact tissues, each concentration tested): no statistically significant differences
mean laser-flare photometry readings and mean changes from baseline ([4]; 1 year, bimatoprost 0.03% once or twice daily, timolol maleate 0.5% twice daily, subset of 310 patients): no significant differences among the treatment groups
safety and tolerability ([4]; study extension to 2 years): safe and well-tolerated
concentrations found in ocular surface tissues [5]: 10^−6-10^−5 molar equivalent
response in the endothelium-denuded preparation ([6]; endothelium-denuded, histamine precontracted, bimatoprost): inactive
EC50 ([6]; endothelium-intact jugular veins, 3 μM histamine precontracted, read-out: vasorelaxant response EC50): 3.98 µM
Incidence of inflammation in palpebral conjunctiva (number of animals with histopathologic findings), Upper Eyelid, Chronic active ([7]; n = 6, right eye, bimatoprost 0.03% b.i.d. for 12 months): 5
Incidence of inflammation in palpebral conjunctiva (number of animals with histopathologic findings), Upper Eyelid, Chronic active ([7]; n = 6, right eye, bimatoprost 0.1% b.i.d. for 12 months): 3
Incidence of inflammation in palpebral conjunctiva (number of animals with histopathologic findings), Upper Eyelid, Chronic active ([7]; n = 8, right eye, bimatoprost 0.03% q.d. for 12 months): 4
direct stimulation of inflammatory pathways involving adhesion molecules or class II antigens ([8]; in vitro): None of the drugs appeared to induce direct stimulation of inflammatory pathways
toxicity observed ([8]; primarily related to the concentration of benzalkonium chloride): mild
Mononuclear cell infiltration in palpebral conjunctiva, Lower Eyelid [9, 12]: N
Mononuclear cell infiltration in palpebral conjunctiva, Upper Eyelid [9, 12]: N
Mononuclear cell infiltration in palpebral conjunctiva, Lower Eyelid [9, 13]: N
Mononuclear cell infiltration in palpebral conjunctiva, Upper Eyelid [9, 13]: N
Mononuclear cell infiltration in palpebral conjunctiva, Lower Eyelid [9, 14]: N
Mononuclear cell infiltration in palpebral conjunctiva, Upper Eyelid [9, 14]: N
evidence of inflammation [10]: no evidence of inflammation
ocular surface hyperemic response (severity) ([11]; D-NAME treated control eyes, scale 0=none, 0.5=trace, 1=mild, 2=moderate, 3=severe): trace to mild
effect of L-NAME on elicited ocular surface hyperemia ([11]; L-NAME 1% treated eyes, PGE2 0.01%, 0-6 h): blocked
